Laboratory results: patent US10899751B2, “Compounds, compositions, and methods for increasing CFTR activity” (Proteostasis Therapeutics, Inc., priority 2016, dated 2021)

Molecular target: T1, ΔF508-CFTR (Homo sapiens, UniProt P13569, DEL508-508)
T1 construct: Primary lung epithelial cells homozygous for the Cystic Fibrosis-causing ΔF508 mutation were differentiated for a minimum of 4 weeks; endogenous in cells; host or cells: primary lung (bronchial) epithelial cells (hBE) homozygous for ΔF508, differentiated at an air-liquid interface
Assay: hBE equivalent current (Ieq) assay
Format: cell-based
Details: primary lung epithelial cells homozygous for ΔF508, 24 h treatment; for Ieq Activity: compound at its EC50 and VX-809 at 3 uM; for EC50: AUC of equivalent chloride current after forskolin plus VX-770
Description: Primary lung epithelial cells homozygous for the Cystic Fibrosis-causing ΔF508 mutation were differentiated for a minimum of 4 weeks in an air-liquid interface on Costar 24 well HTS filter plates prior to the equivalent current (Ieq) measurements. Cells were apically mucus-washed for 30 minutes 24 h prior to treatment with compounds. The basolateral media was removed and replaced with media containing the compound of interest diluted to its final concentration from DMSO stocks. Treated cells were incubated at 37° C. and 5% CO2 for 24 hours. At the end of the treatment period, the media was changed to the Ieq experimental solution for 30 minutes before the experiment and plates are maintained in a CO2-free incubator during this period. The plates containing the cells were then placed in pre-warmed heating blocks at 36° C.±0.5 for 15 minutes before measurements are taken. The transepithelial voltage (VT) and conductance (GT) were measured using a custom 24 channel current clamp (TECC-24) with 24 well electrode manifold. The Ieq assay measurements were made following additions with standardized time periods: • 1. The baseline VT and GT values were measured for approximately 20 minutes. • 2. Benzamil was added to block ENaC for 15 minutes. • 3. Forskolin plus VX-770 were added to maximally activate ΔF508-CFTR for 27 minutes. • 4. Bumetanide was added to inhibit the NaK2Cl cotransporter and shut-off secretion of chloride.
The activity data captured was the area under the curve (AUC) for the traces of the equivalent chloride current. The AUC was collected from the time of the forskolin/VX-770 addition until the inhibition by bumetanide addition. Correction in response to compound treatment was scored as the increase in the AUC for compound-treated samples over that of vehicle-treated samples.
(** indicates activity ≥200% of VX-809 (3 uM) with compound at its EC50 and VX-809 at 3 uM; * indicates activity 100-200% of VX-809 (3 uM) with compound at its EC50 and VX-809 at 3 uM. ##indicates activity <100% of VX-809 (3 uM) with compound at its EC50 and VX-809 at 3 uM. In Table 2, an Ieq EC50 value of “A” indicates the compound's EC50 is ≤1 μM; an Ieq EC50 value of “B” indicates the compound's EC50 is between 1 and 10 μM; an Ieq EC50 value of “C” indicates the compound's EC50 is ≥10 μM.

T1 sequence (P13569 with tags, fused parts or gaps DEL508-508): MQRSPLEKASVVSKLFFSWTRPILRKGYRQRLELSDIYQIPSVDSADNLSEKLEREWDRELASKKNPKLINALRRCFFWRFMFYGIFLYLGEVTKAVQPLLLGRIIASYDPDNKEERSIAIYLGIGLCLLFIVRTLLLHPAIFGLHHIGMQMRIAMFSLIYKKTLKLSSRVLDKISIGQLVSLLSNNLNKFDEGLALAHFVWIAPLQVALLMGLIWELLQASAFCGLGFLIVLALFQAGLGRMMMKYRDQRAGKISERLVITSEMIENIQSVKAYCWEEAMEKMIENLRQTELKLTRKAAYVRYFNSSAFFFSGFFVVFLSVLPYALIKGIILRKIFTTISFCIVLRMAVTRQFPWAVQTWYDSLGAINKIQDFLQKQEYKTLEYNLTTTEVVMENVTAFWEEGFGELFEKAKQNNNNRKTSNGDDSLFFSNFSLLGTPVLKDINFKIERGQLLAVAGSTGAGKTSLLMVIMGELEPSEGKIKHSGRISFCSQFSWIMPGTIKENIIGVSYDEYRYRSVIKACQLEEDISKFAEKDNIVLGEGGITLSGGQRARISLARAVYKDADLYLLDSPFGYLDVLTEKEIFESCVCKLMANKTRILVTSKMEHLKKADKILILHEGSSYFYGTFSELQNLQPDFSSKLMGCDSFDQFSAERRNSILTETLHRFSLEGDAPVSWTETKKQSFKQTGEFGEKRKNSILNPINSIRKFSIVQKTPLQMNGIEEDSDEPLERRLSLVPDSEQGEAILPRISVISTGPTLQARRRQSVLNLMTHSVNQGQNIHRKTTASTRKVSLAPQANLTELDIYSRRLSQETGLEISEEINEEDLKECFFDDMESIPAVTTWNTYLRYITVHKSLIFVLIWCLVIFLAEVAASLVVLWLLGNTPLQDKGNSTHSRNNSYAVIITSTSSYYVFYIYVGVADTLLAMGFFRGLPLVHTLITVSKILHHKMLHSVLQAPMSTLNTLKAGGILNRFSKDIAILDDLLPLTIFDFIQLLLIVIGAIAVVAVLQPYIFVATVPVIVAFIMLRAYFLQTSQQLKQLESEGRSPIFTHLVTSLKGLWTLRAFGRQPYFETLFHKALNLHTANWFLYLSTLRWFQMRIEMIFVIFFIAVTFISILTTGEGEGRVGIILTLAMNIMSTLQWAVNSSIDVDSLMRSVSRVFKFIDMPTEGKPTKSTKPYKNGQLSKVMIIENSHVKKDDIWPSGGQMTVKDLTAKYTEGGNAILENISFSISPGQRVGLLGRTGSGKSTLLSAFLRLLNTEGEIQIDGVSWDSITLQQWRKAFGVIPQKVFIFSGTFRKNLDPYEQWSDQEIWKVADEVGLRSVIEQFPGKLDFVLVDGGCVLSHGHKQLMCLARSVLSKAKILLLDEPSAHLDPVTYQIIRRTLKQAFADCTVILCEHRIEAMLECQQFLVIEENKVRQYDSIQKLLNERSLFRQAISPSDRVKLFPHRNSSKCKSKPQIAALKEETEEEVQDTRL

Row | EC50 [µM] | SMILES | Ieq Activity
1 | 1 to 10 | O=C(N[C@H]1C[C@H](C(=O)N2CCC2)C1)c1cc(-c2ccccc2)no1 [Example 4, N-((1r,3r)-3-(Azetidine-1-carbonyl)cyclobutyl)-3-phenylisoxazole-5-carboxamide] | ** (** indicates activity ≥200% of VX-809 (3 uM) with compound at its EC50 and VX-809 at 3 uM)
2 | ≤ 1 | CN1CCN(C(=O)CCCCNC(=O)c2cc(-c3ccccc3)on2)CC1 [Example 11] | ## (##indicates activity <100% of VX-809 (3 uM) with compound at its EC50 and VX-809 at 3 uM)
3 | ≤ 1 | O=C(N[C@H]1C[C@H](C(=O)N2CCC2)C1)c1cc(-c2ccccc2)on1 [Example 2, N-((1r,3r)-3-(Azetidine-1-carbonyl)cyclobutyl)-5-phenylisoxazole-3-carboxamide] | ** (** indicates activity ≥200% of VX-809 (3 uM) with compound at its EC50 and VX-809 at 3 uM)
4 | ≤ 1 | O=C(NCCCC(=O)N1CCC1)c1cc(-c2ccc(F)cc2)on1 [Example 1, N-(4-(Azetidin-1-yl)-4-oxobutyl)-5-(4-fluorophenyl)isoxazole-3-carboxamide] | ** (** indicates activity ≥200% of VX-809 (3 uM) with compound at its EC50 and VX-809 at 3 uM)
5 | ≤ 1 | O=C(NCCCCC(=O)N1CCC1)c1cc(-c2ccccc2)on1 [Example 8] | ## (##indicates activity <100% of VX-809 (3 uM) with compound at its EC50 and VX-809 at 3 uM)
6 | ≤ 1 | O=C(NCCC(=O)N1CCC1)c1cc(-c2ccccc2)on1 [Example 12] | * (* indicates activity 100-200% of VX-809 (3 uM) with compound at its EC50 and VX-809 at 3 uM)
7 | ≤ 1 | O=C(N[C@H]1C[C@H](C(=O)N2CCC2)C1)c1cc(-c2ccc(F)cc2)on1 [Example 6] | * (* indicates activity 100-200% of VX-809 (3 uM) with compound at its EC50 and VX-809 at 3 uM)
8 | 1 to 10 | O=C(NCCCC(=O)N1CCC1)c1cc(-c2ccccc2)no1 [Example 3, N-(4-(Azetidin-1-yl)-4-oxobutyl)-3-phenylisoxazole-5-carboxamide] | * (* indicates activity 100-200% of VX-809 (3 uM) with compound at its EC50 and VX-809 at 3 uM)
9 | ≤ 1 | CN1CCN(C(=O)CCCNC(=O)c2cc(-c3ccc(F)cc3)on2)CC1 [Example 10] | ## (##indicates activity <100% of VX-809 (3 uM) with compound at its EC50 and VX-809 at 3 uM)
